Laboratory results from the NIST ThermoML archive (doi:10.1016/j.fluid.2016.08.002).

Test: xn = mol fraction of the nth substance listed
Conditions: Gas, Vibrating tube method

S [hydrogen sulfide] + C
Conditions	mass density [kg/m3]
273.32 K, 16120 kPa, x2 = 0.8685	204.24
273.32 K, 16817 kPa, x2 = 0.8685	211.55
273.33 K, 17352 kPa, x2 = 0.8685	216.85
273.33 K, 21405 kPa, x2 = 0.8685	250.29
273.34 K, 17978 kPa, x2 = 0.8685	222.75
273.34 K, 18233 kPa, x2 = 0.8685	225.06
273.35 K, 18773 kPa, x2 = 0.8685	229.81
273.35 K, 19531 kPa, x2 = 0.8685	236.12
273.36 K, 20692 kPa, x2 = 0.8685	245.12
273.37 K, 20048 kPa, x2 = 0.8685	240.23
273.37 K, 24085 kPa, x2 = 0.714	364.7
293.18 K, 239 kPa, x2 = 0.8685	1.86
293.18 K, 469 kPa, x2 = 0.8685	3.71
293.18 K, 2890 kPa, x2 = 0.8685	25.81
293.18 K, 8263 kPa, x2 = 0.8685	79.99
293.18 K, 8722 kPa, x2 = 0.8685	85.68
293.18 K, 9972 kPa, x2 = 0.8685	100.39
293.18 K, 12003 kPa, x2 = 0.8685	124.94
293.18 K, 12415 kPa, x2 = 0.8685	130.08
293.18 K, 12830 kPa, x2 = 0.8685	135.13
293.18 K, 13726 kPa, x2 = 0.8685	145.96
293.19 K, 792 kPa, x2 = 0.8685	6.46
293.19 K, 1341 kPa, x2 = 0.8685	11.22
293.19 K, 2300 kPa, x2 = 0.8685	20.14
293.19 K, 3396 kPa, x2 = 0.8685	30.35
293.19 K, 3988 kPa, x2 = 0.8685	35.82
293.19 K, 4428 kPa, x2 = 0.8685	40.25
293.19 K, 6909 kPa, x2 = 0.8685	65.4
293.19 K, 7335 kPa, x2 = 0.8685	70.05
293.19 K, 7786 kPa, x2 = 0.8685	74.96
293.19 K, 9097 kPa, x2 = 0.8685	90.09
293.19 K, 9534 kPa, x2 = 0.8685	95.16
293.19 K, 10368 kPa, x2 = 0.8685	105.2
293.19 K, 10794 kPa, x2 = 0.8685	110.28
293.19 K, 11183 kPa, x2 = 0.8685	115.06
293.19 K, 11608 kPa, x2 = 0.8685	120.16
293.19 K, 13230 kPa, x2 = 0.8685	140.02
293.19 K, 16228 kPa, x2 = 0.8685	174.96
293.19 K, 16699 kPa, x2 = 0.8685	180.07
293.19 K, 17682 kPa, x2 = 0.8685	190.29
293.2 K, 1820 kPa, x2 = 0.8685	15.41
293.2 K, 4887 kPa, x2 = 0.8685	44.78
293.2 K, 5494 kPa, x2 = 0.8685	50.99
293.2 K, 5964 kPa, x2 = 0.8685	55.59
293.2 K, 6411 kPa, x2 = 0.8685	60.21
293.2 K, 14242 kPa, x2 = 0.8685	152.42
293.2 K, 14579 kPa, x2 = 0.8685	156.48
293.2 K, 14924 kPa, x2 = 0.8685	160.62
293.2 K, 15365 kPa, x2 = 0.8685	165.51
293.2 K, 15806 kPa, x2 = 0.8685	170.31
293.2 K, 17183 kPa, x2 = 0.8685	185.14
293.2 K, 18163 kPa, x2 = 0.8685	195.16
293.2 K, 20932 kPa, x2 = 0.8685	220.42
293.2 K, 21495 kPa, x2 = 0.8685	224.99
293.2 K, 27629 kPa, x2 = 0.8685	265.96
293.2 K, 28496 kPa, x2 = 0.8685	270.59
293.21 K, 1117 kPa, x2 = 0.8685	9.2
293.21 K, 23505 kPa, x2 = 0.8685	240.2
293.21 K, 25865 kPa, x2 = 0.8685	255.77
293.21 K, 26669 kPa, x2 = 0.8685	260.49
293.21 K, 29415 kPa, x2 = 0.8685	275.27
293.21 K, 29995 kPa, x2 = 0.8685	278.16
293.21 K, 30419 kPa, x2 = 0.8685	280.17
293.22 K, 20355 kPa, x2 = 0.8685	215.54
293.22 K, 24254 kPa, x2 = 0.8685	245.19
293.22 K, 25052 kPa, x2 = 0.8685	250.52
